The subject of data set [1] is S. aureus MRSA 272123. In words: MIC determination. The data set is classed as cell-based, Staphylococcus aureus. The note with it: 18 h. As for the experimental part:
(§1) Wild-type Escherichia coli K-12 AG100 strain [argE3 thi-1 rpsL xyl mtl Δ(gal-uvrB) supE44] expressing the AcrAB TolC efflux pump at its basal level and Klebsiella pneumoniae ATCC 49619 Gram-negative strains were studied in the experiments. Sensitive (ATCC 25928) and the methicillin-resistant (MRSA 272123) subspecies of Staphylococcus aureus were used as Gram-positive strains in the assays.
(§2) Minimum inhibitory concentration (MIC) values of selected compounds were determined in 96-well plates based on the Clinical and Laboratory Standard Institute guidelines (CLSI guidelines). The stock solutions of the compounds were dissolved in DMSO using 1.3 μL of Mueller Hinton Broth, and then two-fold serial dilutions were performed. The starting concentration of the compounds was 100 μM. Then 10^‒4 dilution of an overnight bacterial culture in 100 μL of medium was added to each well, except for the medium control wells.

The test system of data set [2] is S. aureus ATCC 25928. In words: MIC determination. It counts as cell-based, Staphylococcus aureus. As to conditions: S. aureus ATCC 25928 (sensitive); 18 h. As to the method:
as §1, §2

The subject of data set [3] is A-549 cells. Nature of the data set: Cytotoxicity with ROS scavenger NAC (SRB). The note with it: 10 mM NAC pre-treatment 2 h, co-treatment 72 h. The data set is classed as cell-based. The source says:
(§3) Additionally, to assess whether the ROS induction contributed to the cytotoxicity triggered by these complexes, we used a ROS scavenger, N-acetyl-cysteine (NAC), in combination with 1, 3, 5 or 8. […] Indeed, it is also possible that the cytotoxicity induced by 5 is not by ROS, despite the induction observed in Figure 7A.
(§4) Figure S27- Protective mechanism of NAC against Cu(II) complexes. Addition of NAC can protect cells from the cytotoxic effects of the Cu(II) complexes A-375 (A) and A-549 (B) cells were pre-treated with 10 mM of ROS scavenger N-acetylcysteine (NAC) for 2 h, then co-treated with freshly prepared Cu(II) complexes (1, 3, 5 and 8) for 72 h. Cell viability was measured via SRB assay (2 biological replicates, each done in duplicate). The error bars represent standard error of the mean. Student t-test was used for statistical analysis, *p<0.05, **p<0.01

Data set [4] concerns A-375 cells. In words: Cytotoxicity with ROS scavenger NAC (SRB). The data set is classed as cell-based. As to conditions: 10 mM NAC pre-treatment 2 h, co-treatment 72 h.
Description: as §3, §4

Data set [5] relates to A-549 cells. Nature of the data set: Sulforhodamine B (SRB) cell viability assay. The note with it: 72 h. It counts as cell-based. As for the experimental part:
(§5) Copper compounds were tested, along with the free ligands and cisplatin as the positive control, for their cytotoxicity on both melanoma (A-375) and lung adenocarcinoma (A-549) cell lines in the concentration range 0.78–50 μM. Following 72 h of incubation, cell viability was measured via sulforhodamine B (SRB) assay (Supplementary Figure S25).
(§6) A-375 cells (ATCC, CRL-3222) were grown in Dulbecco’s Modified Eagle Medium with high glucose (Gibco #11965118) and A-549 (ATCC, CCL-185) cells were grown in Dulbecco’s Modified Eagle Medium F-12 (Gibco #11320033), supplemented with 10% FBS (Gibco, #10500064) and Penicillin-Streptomycin (10,000 U/mL, Gibco, #15140122). Cells were incubated at 37 °C, 5% CO2 incubator and subcultured every 3 days.
(§7) All the tested complexes were dissolved in DMSO (10 mM stock solution), and aliquots were stored at -20 °C, thawed on the experiment day and used only once. For SRB cell viability assay, A-375 and A-549 cells were seeded on 96-well plates (4×10^3 cells/well) and treated with serial dilutions of indicated compounds (with a concentration range of 0-50 μM, 72 h). Trichloroacetic acid (TCA) was added to wells for fixation at a final concentration of 10%, for 1 h at 4 °C. Each well was washed five times with ddH2O, dried, and incubated with 0.4% (w/v) SRB dye (50 µL/well) for 30 min at room temperature. The wells were washed with 1% acetic acid (v/v) five times, and 150 µL of 10 mM Tris solution was added to dissolve the stain. Colorimetric measurements were taken at λ = 564 nm. Viability percentage was calculated as follows: % Cell Viability = [100 × (sample Abs.-blank) / (non-treated control Abs.-blank)].

In data set [6] the test system is A-375 cells. In words: Sulforhodamine B (SRB) cell viability assay. It counts as cell-based. As to conditions: 72 h. As to the method: as §5, §6, §7
The subject of data set [7] is A-375 cells. Nature of the data set: γH2AX staining for DNA double-strand breaks. It counts as cell-based. As to the method: Indeed, we examined whether DNA nicks induced by the complexes on pure plasmid DNA would reflect in cell culture as increased DNA break formation. To test this, A-375 cells were stained using γH2AX, which is a common marker for DSBs (Figure 7B). […] For complex 1 the opposite effect was observed and despite its lower ability to induce ROS formation, the DSB were the highest among the group.
(§8) 5 × 10^4 number of A-375 and A-549 cells were seeded on 12-well plates, and the next day cells were treated with either copper complexes (calculated IC70 values) or cisplatin (15 μM). Following 48 h of treatment, cells were trypsinized, centrifuged and resuspended in PBS solution supplemented with 1% fetal bovine serum (FBS) (10^6 cells/mL).
The Muse ɣH2A.X Activation Dual Detection Kit (Luminex, MCH200101) protocols were followed with minor changes. 1 × 10^5 cells were mixed with ice-cold 1X Fixation Buffer at the same volume for 5 min. Cells were centrifuged (600 g, 5 min), and the pellet was suspended with 100 μL of ice-cold 1X Permeabilization Buffer (10 min, on ice), and centrifuged again. The cell pellet was resuspended with 50 μL of antibody mixture of (20X) Anti-phospho-Histone H2A.X (Ser139), Alexa Fluor 555 and (20X) Anti-H2A.X, PECy5 antibodies. Following 30 min of antibody staining, cells were centrifuged and resuspended with 1X Assay Buffer. DNA breaks were analysed with Muse Cell Analyzer (Merck Millipore).

For data set [8], the system named is A-549 cells. In words: ROS activation via dihydroethidium staining, flow cytometry. It counts as cell-based.
Description: Since reactive oxygen species appeared to be involved in the nicking activity of the complexes (Supplementary Figure S24), we investigated whether there was an increase in ROS formation in cells upon drug treatment. Dihydroethidium (DHE) is a reduced form of ethidium, after oxidation with superoxide (ROS), it is converted into 2-hydroxy ethidium, which is a chemical that emits red fluorescence and intercalates DNA. […] Similar results were obtained using A-549 cells, but with much milder induction of ROS except for 8, which remained high (Supplementary Figure S26).
as §8
Oxidative stress levels were assessed by Muse Oxidative Stress Kit (Luminex, MCH100111) using the same protocol as previously described (21).
(Flow cytometry measures light scatter and fluorescence of single cells or particles in a stream.)

In data set [9] the test system is A-375 cells. Nature of the data set: Apoptosis by Annexin V/7-AAD and Caspase 3/7 flow cytometry. The data set is classed as cell-based. As to conditions: 48 h, Annexin-V and caspase 3/7. As to the method:
To determine the mode of cell death, A-375 cells were incubated with the Cu complexes and cisplatin for 48 h and, induction of apoptosis was evaluated using both Annexin-V staining and activation of caspase 3/7 in response to drug treatment. While Annexin-V staining relies on the loss of plasma membrane asymmetry, caspases 3 and 7 are critical proteases, which are responsible for the cleavage of many cellular proteins. […] Similar results were obtained in A-549 cells (Supplementary Figure S28).
as §8
Annexin V & Dead Cell Kit (Luminex, MCH100105) protocols were followed for Annexin V activation. Briefly, 1 × 10^5 cells were stained with Annexin V and 7-AAD solution in a 1:1 ratio and incubated at room temperature for 20 min. The apoptotic cell population was evaluated with Muse Cell Analyzer (Merck Millipore).
Caspase-3/7 Kit (Luminex, MCH100108) protocols were followed for Caspase 3/7 staining. 2 × 10^5 cells were stained with 5 μL of Caspase 3/7 antibody (1:8 dilution in PBS) and incubated at room temperature for 30 min. Then, the cells were stained with 100 μL of 7-AAD antibody mixture (1:75 dilution with 1 × Assay Buffer) for 5 min. Caspase 3/7 and 7-AAD positivity were assessed with Muse Cell Analyzer (Merck Millipore).

Data set [10] deals with Escherichia coli K-12 AG100. Nature of the data set: MIC determination. As to conditions: E. coli; 18 h. The data set is classed as cell-based. As for the experimental part: as §1, §2
Data set [11] relates to Klebsiella pneumoniae ATCC 49619. Nature of the data set: MIC determination. The data set is classed as cell-based. As to conditions: K. pneumoniae; 18 h. As to the method: as §1, §2
Data set [12] is described as follows: Thermodynamic solubility at pH 7.4. The data set is classed as physicochemical. The note with it: Cu(II) complexes; pH 7.40; 20 mM HEPES; 25.0°C. As for the experimental part: Thermodynamic solubility (S) was measured for the new ligands, L^7 and L^8, since data for the rest of the series was previously reported (9), and for selected Cu(II) complexes: 1, 5 and 6. Solubility was measured for the saturated solutions in water at pH 7.40 in 20 mM HEPES at 25.0 ± 0.1 °C. The concentration was determined by UV-Vis spectrophotometry using the stock solutions of the compounds with known concentrations dissolved in 100% DMSO, 50% and 25% (v/v) DMSO/buffered aqueous solutions for the calibration.

In general, MIC refers to the least concentration at which growth counts as inhibited. A lower MIC goes with a more susceptible organism. By IC50 is commonly meant the concentration at which inhibition is half-maximal.

Some results are limits rather than exact numbers.

For `[Cu+2].[O-]C(=NN=Cc1ccc2cccc([O-])c2n1)c1ccncc1` [Complex 8, [Cu(L^8)]3], the MIC in data set [1], in [2], in [10] and in data set [11] was over 100 µM each time. In addition, the “effect of NAC on cytotoxicity” value in data set [3] and in data set [4] was “significantly reduced” each time. Also, the IC50 came to 5.1 ± 0.2 µM in data set [5] and 2.8 ± 0.4 µM in [6]. Moreover, the “DSB induction (γH2AX), in words” value in [7] is on record as “highest levels of DSB induction”. Further, in [8], the “ROS induction, in words” value is listed as “remained high”. For the same compound, the “induction of apoptosis, in words” value in [9] is reported as “most effective drug among the complexes tested”. Also, the “thermodynamic solubility S 7.4” value in data set [12] was determined as 3.3 ± 0.3 µM.

The values above are taken from paper PMC10072326, “Promising anticancer agents based on 8-hydroxyquinoline hydrazone copper(II) complexes” (Frontiers in Chemistry, 2023).
